# Experimental data from publication PMC11928319 (Nature Plants, 2025).
# Where no end group is shown, it is not given here.
# Test system: filter-sterile supernatant of D. japonica MF79
# Assay: Peptide quantification by mass spectrometry after incubation in cell-free supernatant of D. japonica MF79
# Format: in vitro ADME, Dyella japonica MF79
# Conditions: for peptide degradation in culture supernatant of wild-type D. japonica MF79 / peptide depletion in supernatant of the D. japonica MF79 gspD mutant: 1 µM peptide, 1 h, filter-sterile supernatant, XVM2 (OD600 = 0.6), LC-MS; for Log10(total_area_MS1) / percent_rel_axenic: incubation 1h; for Log10(total_area_MS1): MS1 precursor area; for percent_rel_axenic: peptide relative to axenic
# Protocol: Elicitors were also supplemented into the medium prior to solidification at a final concentration of 1 µM. The flg22 ([…]) and AtPep1 ([…]) peptides were synthesized by EZbiolab. elf18^R179 (Ac-[…]) and elf18 (Ac-[…]) were synthesized by GenScript and EZbiolab, respectively. […] Bacteria were pelleted by centrifugation (11,600 g, 2 min), and the supernatant was sterile-filtered using filter units with MF-Millipore membrane (0.22 µm; Millex). The supernatant was incubated in boiling water for 30 min for heat treatment. Then, 25 ml of 1× MS with 20 g l^−1 Bacto Agar was mixed with 25 ml of supernatant prior to medium solidification and poured into square petri dishes. Sterilized seeds were placed on solidified agar in square petri dishes and vertically incubated for 14 days.
# Bacterial supernatants were prepared as described in ‘Agar-based cultivation of axenic plants and co-cultivation with bacteria, bacterial supernatants and elicitors’. Here, additionally, the peptides dRGF1 (DYSNPGHHP-Hyp-RHN) and PSY1 (D-Y(SO3H)-[…]-Hyp-Hyp-S) synthesized by Scilight Peptide were incubated for 1 h with 1 µM of peptides in a plant cultivation light chamber (day-light condition; see ‘Plant cultivation conditions’), and the samples were frozen at −20 °C until further processing. For the investigation of AtPep1 degradation, the AtPep1 peptide was first modified by acetylation (six to seven times). To this end, 100-µl aliquots of peptides were treated with 10 µl of NHS acetate solution (1 M NHS acetate in 50% ACN/PBS) and incubated for 30 min with shaking. The reaction was quenched by the addition of 100 µl of 100 mM Tris-HCl (pH 8.5) and incubated for 10 min. For comparison of the non-acetylated peptides with the above-described modified AtPep1 peptides, aliquots of the non-acetylated peptides were processed as described above, but without the modifying NHS reaction. To this end, 100-µl aliquots of the sample were mixed with 100 µl of PBS buffer (137 mM NaCl, 2.7 mM KCl, 10 mM Na2HPO4, 1.8 mM KH2PO4; pH 7.4). The samples were then further diluted with 100 µl of 100 mM Tris-HCl (pH 8.5) and incubated for 10 min. All samples were acidified with 5 µl of TFA and desalted using StageTips with C18 Empore disk membranes (3M)[109]. The samples were dried in a vacuum evaporator and dissolved in 10 µl of 2% ACN (0.1% TFA for analysis).
# The samples were analysed using an EASY-nLC 1200 (Thermo Fisher) coupled to a QExactive Plus mass spectrometer (Thermo Fisher). Peptides were separated on 16-cm frit-less silica emitters (New Objective, 75 µm inner diameter), packed in-house with reversed-phase ReproSil-Pur C18 AQ 1.9 µm resin (Dr. Maisch). Peptides were loaded on the column and eluted for 50 min using a segmented linear gradient of 5% to 95% solvent B (0 min, 5% B; 0–5 min, 15% B; 5–35 min, 50% B; 35–45 min, 95% B; 45–50 min, 95% B) (solvent A: 0% ACN, 0.1% FA; solvent B: 80% ACN, 0.1% FA) at a flow rate of 300 nl min^−1. Mass spectra were acquired in data-dependent acquisition mode with a TOP10 method. Mass spectrometry spectra were acquired in the Orbitrap analyser with a mass range of 300–1,500 m/z at a resolution of 70,000 full width at half maximum (FWHM) and a target value of 3 × 10^6 ions. Precursors were selected with an isolation window of 1.3 m/z. Higher-energy collision dissociation (HCD) fragmentation was performed at a normalized collision energy of 25. Tandem mass spectrometry (MS/MS) spectra were acquired with a target value of 5 × 10^5 ions at a resolution of 17,500 FWHM, a maximum injection time of 85 ms and a fixed first mass of 100 m/z. Peptides with a charge of 1 or greater than 6 or with an unassigned charge state were excluded from fragmentation for MS/MS; dynamic exclusion for 20 s prevented repeated selection of precursors. The raw data were analysed on the MS1 level using Skyline (https://skyline.ms)[110], and the results were filtered for the respective intact peptides, or the acetylated version in the case of AtPep1. […]
# [1] = MF79 gspD mutant supernatant, XVM2 medium, replicate 1
# [2] = MF79 gspD mutant supernatant, XVM2 medium, replicate 2
# [3] = MF79 gspD mutant supernatant, XVM2 medium, replicate 3
# [4] = MF79 supernatant, XVM2 medium, replicate 1
# [5] = MF79 supernatant, XVM2 medium, replicate 2
# [6] = MF79 supernatant, XVM2 medium, replicate 3
# [7] = axenic XVM2 medium control, replicate 2
# [8] = axenic XVM2 medium control, replicate 3
# [9] = axenic XVM2 medium control, replicate 1
Substance,peptide degradation in culture supernatant of wild-type D. japonica MF79,peptide depletion in supernatant of the D. japonica MF79 gspD mutant,Log10(total_area_MS1) [1],Log10(total_area_MS1) [2],Log10(total_area_MS1) [3],percent_rel_axenic [1] [%],percent_rel_axenic [2] [%],percent_rel_axenic [3] [%],Log10(total_area_MS1) [4],Log10(total_area_MS1) [5],Log10(total_area_MS1) [6],percent_rel_axenic [4] [%],percent_rel_axenic [5] [%],percent_rel_axenic [6] [%],Log10(total_area_MS1) [7],Log10(total_area_MS1) [8],percent_rel_axenic [7] [%],percent_rel_axenic [8] [%],Log10(total_area_MS1) [9],percent_rel_axenic [9] [%]
ATKVKAKQRGKEKVSSGRPGQHN [AtPep1],similarly effective in degrading,depleted,0,0,0,0,0,0,7.596,7.38,6.998,0.3481,0.2117,0.0878,10.0991,9.961,110.888,80.7256,,
Ac-SKEKFERTKPHVNVGTIG [elf18],similarly effective in degrading,depleted,7.363,7.327,7.195,0.1126,0.1036,0.0764,8.052,7.627,7.56,0.5496,0.2067,0.1772,10.2259,10.2716,82.063,91.1647,10.4148,126.772
QRLSTGSRINSAKDDAAGLQIA [flg22],similarly effective in degrading,depleted,0,0,0,0,0,0,0,0,0,0,0,0,7.393,7.844,53.5357,151.5,7.6416,94.9639
